{"source": "patent US20050090504A1", "about": "“Piperidinyl and piperazinyl compounds substituted with bicyclo-heterocyclylalkyl groups useful as CCR3 receptor antagonists” (priority 2003, published 2005)", "key": {"CCR-3 receptor": {"target": "T1, CCR-3 receptor (Homo sapiens, UniProt P51677)", "T1 construct": "expressed in transfected cells; host or cells: L1.2 (murine pre-beta lymphoma line)", "T1 sequence (P51677 1-355)": "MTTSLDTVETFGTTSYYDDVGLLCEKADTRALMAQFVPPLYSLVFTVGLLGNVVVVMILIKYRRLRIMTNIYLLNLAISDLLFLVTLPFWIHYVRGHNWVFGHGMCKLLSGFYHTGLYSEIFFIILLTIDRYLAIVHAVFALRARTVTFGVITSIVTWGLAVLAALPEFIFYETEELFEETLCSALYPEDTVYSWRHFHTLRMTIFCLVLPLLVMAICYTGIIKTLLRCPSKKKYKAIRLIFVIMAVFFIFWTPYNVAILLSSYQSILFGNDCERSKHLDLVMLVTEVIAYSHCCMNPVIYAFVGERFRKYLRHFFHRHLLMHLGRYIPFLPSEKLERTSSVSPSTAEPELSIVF", "test": "CCR-3 Receptor Binding Assay, inhibition of 125I eotaxin binding to CCR-3 L1.2 transfectant cells", "conditions": "CCR-3 L1.2 transfected cells, 1 hour at rt., read-out: CCR3 Binding IC50", "protocol": "The CCR-3 antagonistic activity of the compounds of the invention was determined by their ability to inhibit the binding of ^125 I eotaxin to CCR-3 L1.2 transfectant cells (see Ponath, P. D. et al., J. Exp. Med., Vol. 183, 2437-2448, (1996)).\nThe assay was performed in Costar 96-well polypropylene round bottom plates. Test compounds were dissolved in DMSO and then diluted with binding buffer (50 mM HEPES, 1 mM CaCl2, 5 mM MgCl2, 0.5% bovine serum albumin (BSA), 0.02% sodium azide, pH 7.24) such that the final DMSO concentration was 2%. 25 μl of the test solution or only buffer with DMSO (control samples) was added to each well, followed by the addition of 25 μl of ^125I-eotaxin ([…]) (NEX314, New England Nuclear, Boston, Mass.) and 1.5×10^5 of the CCR-3 L1.2 transfected cells in 25 μl binding buffer. The final reaction volume was 75 μl.\nAfter incubating the reaction mixture for 1 hour at rt., the reaction was terminated by filtering the reaction mixture through polyethylenimine treated Packard Unifilter GF/C filter plate (Packard, Chicago, Ill.). The filters were washed four times with ice cold wash buffer containing 10 mm HEPES and 0.5M sodium chloride (pH 7.2) and dried at 65° C. for approximately 10 minutes. 25 μl/well of Microscint-20® scintillation fluid (Packard) was added and the radioactivity retained on the filters was determined by using the Packard TopCount®. […]"}}, "note": "pIC50: −log10 of the molar value."}
{"smiles": "Cc1ccc2oc(NC(CN3CCN(Cc4ccc(Cl)c(Cl)c4)CC3)C(C)C)nc2c1", "note": "(stereo not drawn) [Example 9, {1-[4-(3,4-Dichloro-benzyl)-piperazin-1-ylmethyl]-2-methyl-propyl}-(5-methyl-benzooxazol-2-yl)-amine]", "values": [{"measurement": "melting point", "result": "155.3 to 156.9", "unit": "°C"}]}
{"smiles": "CC(C)(C)[C@H](CN1CCC(Cc2ccc(Cl)c(Cl)c2)CC1)Nc1nc2ccccc2o1", "note": "[Example 18, 1-[(R)-2-(benzooxazol-2-ylamino)-3,3-dimethyl-butyl]-4-(3,4-dichloro-benzyl)-piperidinium; chloride]", "values": [{"measurement": "pIC50", "setting": "CCR-3 receptor", "result": 6.82}]}
{"smiles": "CC(C)C(CN1CCN(Cc2ccc(Cl)c(Cl)c2)CC1)Nc1nc2ccccc2o1", "note": "(stereo not drawn) [Example 28, 1-[2-(Benzooxazol-2-ylamino)-3-methyl-butyl]-4-(3,4-dichloro-benzyl)-piperazin-1-ium; chloride]", "values": [{"measurement": "pIC50", "setting": "CCR-3 receptor", "result": 6.01}]}
